Reference: a melting point compilation (Tetko et al.; mined from patent text by program, amines drawn as free bases though some values may be those of a salt)

Compared with `Cn1nnnc1SCC(=O)Nc1ccc(C2CCCCC2)cc1`, `COc1cc(C)c(S(=O)(=O)NC(=S)Nc2nc(-c3ccc(C4CCCCC4)cc3)c(C)s2)c(C)c1` is lower in melting point: 204 to 205 °C for the first, 177 to 178 °C for the second.

Going from `CCOC(=O)C1COc2ccc(C(C)=O)cc2O1` (centres undefined) to `CCOC(=O)c1ccc(NS(C)(=O)=O)c(N)c1`, the melting point rises from 57 °C to 151 °C.

First: Clc1cc(-c2csc(Cc3ccccc3)n2)ccn1
Second: COC(=O)CCc1cccc(-c2ccccc2)c1
The melting point of the first is higher: 104 to 106 °C for the first, 29 to 30 °C for the second.

First: CCN(CC)C(=O)c1cc(C(C)(C)C)c(O)c(C(C)(C)C)c1
Second: COc1c(O)cc(C(C)(C)C)c(O)c1C(=O)Nc1ccc(S(=O)(=O)C(F)(F)F)cc1Cl
The melting point of the first is lower: 136 to 138 °C for the first, 171 to 175 °C for the second.

First: O=[N+]([O-])c1ccc(OCCN2CCN(c3nsc4ccccc34)CC2)cc1
Second: O=C(c1ccc(Br)cc1)N1CCN(c2ccncc2)CC1
The melting point of the first is lower: 115 °C for the first, 128 to 129 °C for the second.

First: Nc1cc(-n2cc(C(=O)O)c(=O)c3cc(F)c(F)c(Cl)c32)c(Cl)cc1F
Second: CC(C)(C)OC(=O)Nc1cccc(C2CCN(c3nc4c(cc3F)c(=O)c(C(=O)O)cn4C3CC3)C2)c1 (centres undefined)
The melting point of the first is higher: 237 to 242 °C for the first, 210 to 211 °C for the second.

First: COc1cc(C=CC(=O)Nc2c(-c3ccccc3Cl)c3cc(C(C)C)ccc3n(C)c2=O)cc(OC)c1OC(C)=O
Second: COc1cc2ncc(C#N)c(Nc3cccc(NC(C)=O)c3)c2cc1OC
The melting point of the first is higher: 187 to 189 °C for the first, 147 to 150 °C for the second.

Compared with `Cc1nc(C#N)nc(NCC(F)(F)F)c1I`, `CCOC(=O)C(Cl)=Cc1cc(-n2ncc(C(F)(F)F)c(C)c2=O)ccc1Cl` is higher in melting point: 103 to 105 °C for the first, 164 to 167 °C for the second.

First: CC(=O)OC1CC(=O)N(CC(N)=O)C1 (centres undefined)
Second: CC(=O)SCCC(=O)N1CCN(C)CC1C(=O)O (centres undefined)
The melting point of the first is lower: 84 to 86 °C for the first, 92 to 98 °C for the second.

First: N=C(NOC(=O)c1ccccc1)c1ccc(NC(=O)CCCC(=O)Nc2ccc(C(=N)NOC(=O)c3ccccc3)cc2)cc1
Second: O=C(Nc1ccccc1)c1ccc(Nc2ccccc2)nc1
The melting point of the first is lower: 253 to 255 °C for the first, 264 to 266 °C for the second.

First: CN1CCN(c2nc3sc4c(NCc5cccnc5)ncnc4c3c3c2COC(C)(C)C3)CC1
Second: O=C(c1cccnc1)N1CCC(c2nc(-c3cnc(-c4ccccc4)nc3)c[nH]2)CC1
The melting point of the first is higher: 251 to 252 °C for the first, 234 °C for the second.

First: CSc1nc(=O)n(C)c(=O)[nH]1
Second: CSc1nn2c(=O)cc(CCl)nc2s1
The melting point of the first is higher: 243 to 244 °C for the first, 168 to 169 °C for the second.

First: CCCN(CCC)C1Cc2cc3c(cc2C1)C(=O)N(c1ccc(C(N)=O)cc1)C3=O
Second: CC1Cc2cc3c(cc2C(c2ccc([N+](=O)[O-])cc2)=NN1C(N)=S)OCO3 (centres undefined)
The melting point of the first is higher: 275 to 276 °C for the first, 213 to 215 °C for the second.

First: O=C1NC(=O)C(c2c[nH]c3ccccc23)C1c1cc2c3c(ccn3CCC2)c1 (centres undefined)
Second: O=C1NC(=O)C(Cc2ccc3c(c2)CCC(Cc2ccc(OCc4ccccc4)cc2)O3)S1 (centres undefined)
The melting point of the first is higher: 141 to 145 °C for the first, 118 to 120 °C for the second.

First: O=[N+]([O-])c1ccc(Oc2ccc([N+](=O)[O-])cc2-c2ccc(C(F)(F)F)cc2C(F)(F)F)c(-c2ccc(C(F)(F)F)cc2C(F)(F)F)c1
Second: COC(=O)C=Cc1cc(Oc2c(Cl)cc(C(F)(F)F)cc2Cl)ccc1[N+](=O)[O-]
The melting point of the first is lower: 72 to 73 °C for the first, 90 °C for the second.

First: CCOC(=O)c1ncn2c3cccc(Cl)c3c(=O)n(C)c12
Second: COC(=O)Cn1c(C)cc(Sc2ccccc2)c(N)c1=O
The melting point of the first is higher: 248 to 254 °C for the first, 65 to 66 °C for the second.

First: COc1ccc2occ(N)c(=O)c2c1
Second: COc1ccc2nc(-c3nc(N)nc(N)n3)sc2c1
The melting point of the first is lower: 98 to 100 °C for the first, over 250 °C for the second.

First: OCCCc1cc(-c2ccc(Cl)cc2)n(-c2ccc(Cl)nn2)n1
Second: CC(C)c1cc(CCCOc2ncccc2CC(=O)O)n(Cc2ccc(Cl)cc2Cl)n1
The melting point of the first is higher: 131 to 133 °C for the first, 111 to 112 °C for the second.

First: CCCCCCCCc1ccc(C=Nc2ccc(C#N)cc2)cc1
Second: CCCCCCCCSc1nc2cc(Cl)ccc2[nH]1
The melting point of the first is lower: 32.5 to 32.8 °C for the first, 66 to 67 °C for the second.

First: OCCc1nnc(S)s1
Second: O=C(O)Cc1c(F)c(F)nc(F)c1Cl
The melting point of the first is lower: 101 to 103 °C for the first, 127 to 129 °C for the second.

First: CN(c1ccc(Cl)cc1[N+](=O)[O-])S(=O)(=O)c1ccc(Cl)s1
Second: N#Cc1cc(Oc2ccc(Cl)cc2)ccc1[N+](=O)[O-]
The melting point of the first is lower: 85 to 86 °C for the first, 120 to 122 °C for the second.

Compared with `COc1cc2c(cc1OC)CN(CCCOc1ccc(N)cc1)CC2`, `CCc1[nH]n(C2CCCC2)c2nc(-c3ccc(OCCCN(C)C)cc3)nc(=O)c1-2` is higher in melting point: 100 °C for the first, 175 to 178 °C for the second.

Compared with `CC(C)c1csc(/C=C/c2cc(N)ccc2Cl)n1`, `Cc1nc(C(C)C)c(Sc2cc(Cl)cc(Cl)c2)n1C` is higher in melting point: 82 to 85 °C for the first, 95 to 96 °C for the second.

First: Cc1ccc(S(=O)(=O)OC[C@H]2COc3ccc4nc(C)ccc4c3O2)cc1
Second: COc1ccc(S(=O)(=O)c2ccc3cc(Br)ccc3c2)cc1
The melting point of the first is lower: 115 to 117 °C for the first, 180 to 181 °C for the second.

First: COc1cccc2c(Nc3ccc(C(=O)NC4CCN(Cc5ccccc5)CC4)cc3)c(C(=O)NC3CCN(CCc4ccccc4)CC3)cnc12
Second: CCCCCCNC(=O)Nc1ccccc1C(=O)NC1CCN(C(c2ccccc2)c2ccccc2)CC1
The melting point of the first is higher: 216 to 220 °C for the first, 192 to 194 °C for the second.

First: CNCCCCOc1ccc2c(ccn2-c2ccc(F)cc2)c1
Second: C#CCOc1ccc2c(C)cc(=O)oc2c1C(=O)C=Cc1ccc(F)cc1
The melting point of the first is lower: 49 to 50 °C for the first, 185 to 186 °C for the second.

Compared with `COC1(C)CN(c2ccc([N+](=O)[O-])cc2F)C1`, `NC(=O)c1csc2ccc([N+](=O)[O-])cc12` is higher in melting point: 110 to 111 °C for the first, 243 to 250 °C for the second.

First: CC1(C)CC(=C(c2ccc(O)cc2)c2ccc(/C=C/C(=O)O)cc2)CC(C)(C)C1
Second: COc1ccc(C2c3[nH]c4ccccc4c3CCN2C(=O)C=Cc2ccccc2)cc1 (centres undefined)
The melting point of the first is higher: 219 to 220 °C for the first, 127 °C for the second.

Compared with `CCN(CC)CCNC(=O)c1cnc2ccc(I)cc2c1Cl`, `CCCCc1ccc(CN(CCC(C)(C)C)C(=O)Nc2c(C)cc(Cl)cc2C)cc1` is higher in melting point: 76 to 78 °C for the first, 138 to 139 °C for the second.

Compared with `Cc1cc(C=NNC(N)=S)ncc1NO`, `CC(=NO)C1(c2ccc(Cl)c(Cl)c2)CCC1` is lower in melting point: 197 to 198 °C for the first, 120 to 121 °C for the second.

Compared with `COc1cccc(/C=C/c2nc3c([nH]2)c(=O)n(C)c(=O)n3C)c1OC`, `CCCn1c(=O)c2[nH]c(/C=C/c3ccc(OC)cc3OC)nc2n(CCC)c1=O` is lower in melting point: 289 to 290 °C for the first, 273 to 274 °C for the second.

First: COc1cc(C(C)=O)cc(Br)c1Oc1nc(C)nc(N2CCOCC2)n1
Second: CN(C)C(N)=Nc1ccccc1N1CCOCC1
The melting point of the first is higher: 159 to 162 °C for the first, 143 to 144 °C for the second.

First: CC(C)CCCCCCCCCCCC(=O)Nc1ccc(O)c(O)c1
Second: CC(C)(C)c1ccc(CCCC(O)CC2CCCCC2)cc1NC(=O)CC1c2ccccc2Oc2ccccc21 (centres undefined)
The melting point of the first is lower: 85 to 86 °C for the first, 157 to 158 °C for the second.

Compared with `O=C1CCC2=C1C(c1ccc(Br)cc1)C1=C(CCS1)N2` (centres undefined), `CC1(COc2ccc(S(=O)(=O)C3SC(=O)NC3=O)cc2)CCCCC1` (centres undefined) is lower in melting point: 253 to 256 °C for the first, 174 to 175 °C for the second.

First: O=Cc1c(O)c(Cl)cc(Cl)c1F
Second: N#CN=C1SCCN1Cc1c(Cl)ccc(C(=O)O)c1Cl
The melting point of the first is lower: 58 to 62 °C for the first, 208 °C for the second.

Compared with `CNC(=O)c1ccccc1Nc1nc(Nc2c(OC)ccc3c2C(=O)N(C)CCC3)ncc1Cl`, `CN1C(=O)Cc2cccc(C(=O)c3ccccc3)c21` is lower in melting point: 185 to 187 °C for the first, 89 to 90.5 °C for the second.

First: COCN1C(C)=C(C(=O)OC)C(c2ccccc2)C(C(=O)OCOC(=O)C(C)(C)C)=C1C (single isomer, unassigned; (+))
Second: CCOC(=O)Cc1sc(Sc2cc(C(=O)OC)nc3ccccc23)nc1C
The melting point of the first is lower: 80 to 81 °C for the first, 94 to 95 °C for the second.

First: CCOC(=O)N(c1ccccc1)c1cc(Cl)ccc1N
Second: COC(=O)CCc1cc(C(=O)c2ccccc2Cl)c(N)s1
The melting point of the first is higher: 98 to 101 °C for the first, 89 to 90 °C for the second.

First: COC(=O)c1ccc(CBr)c2occc12
Second: CSc1ccc(-c2coc3ccc(C(=O)NN)cc23)cc1Cl
The melting point of the first is lower: 73 to 80 °C for the first, 207 to 208 °C for the second.

First: CC(C)Cn1c(C(O)c2ccccc2)nc2cnc3ccccc3c21 (centres undefined)
Second: O=C(NCC(=O)N1c2ccccc2N(Cc2ccccc2)C(=O)[C@H]2CCC[C@H]21)c1cccnc1 (relative stereo)
The melting point of the first is lower: 160 to 166 °C for the first, 189 to 191 °C for the second.

First: NS(=O)(=O)c1cc(C(=O)O)cc([N+](=O)[O-])c1Sc1ccccc1
Second: CCCCOC(=O)NS(=O)(=O)c1ccccc1-c1ccc(Cn2c(CCC)nc(SC)c2C(=O)O)cc1
The melting point of the first is higher: 245 to 247 °C for the first, 202 to 204 °C for the second.

Compared with `COc1ccc(C=Nc2cc(OC)c(OC)c(OC)c2)cc1O[Si](C)(C)C(C)(C)C`, `CCOc1cc2c(cc1O[Si](C)(C)C(C)(C)C)C(=O)CC1C2CCC2(C)C(O[Si](C)(C)C(C)(C)C)CCC12` (centres undefined) is higher in melting point: 90 to 91 °C for the first, 150 to 151 °C for the second.

First: CC(C)[C@]1(CO)CCC(C)(C)C(=O)O1
Second: CC12CCC(=O)C=C1CCC1C2CCC2(C)C1CCC2(O)C(=O)CCl (centres undefined)
The melting point of the first is lower: 178 to 181 °C for the first, 239 °C for the second.

Compared with `CC1Cc2cc(C#N)ccc2C1=O` (centres undefined), `Cn1ccc(-c2ccc([N+](=O)[O-])o2)n1` is higher in melting point: 90 to 91 °C for the first, 163 to 164 °C for the second.

First: Cc1ccccc1C(CCC(=O)O)Oc1cc(OCc2ccsc2)cc(F)c1C#N (racemic)
Second: N#Cc1cc(OCCOCC2CC2)ccc1OCC(O)CNCCNC(=O)Nc1ccccc1 (centres undefined)
The melting point of the first is higher: 150 to 151 °C for the first, 110 to 113 °C for the second.

First: CCOC(=O)C(CC(=O)c1cccc(OC)c1)(NC(C)=O)C(=O)OCC
Second: C=C(C)C(=O)OCCOc1ccc(C(=O)O)cc1
The melting point of the first is lower: 119 to 120 °C for the first, 146 °C for the second.

First: Cc1ccc(Sc2c(Cl)c(Cl)c(C(O)=NCCO)c(C(=O)O)c2Cl)cc1
Second: CCCCC#CC#CCOc1ccc(C(=O)O)cc1
The melting point of the first is higher: 205 to 209 °C for the first, 165 to 166 °C for the second.

First: CS(=O)(=O)NS(=O)(=O)c1cccc(NC(=O)NC2N=C(c3ccccc3F)c3ccccc3N(CC(=O)N3CC4CCC(CC4)C3)C2=O)c1 (racemic)
Second: CCCCC(C)(CC)C(=O)C(Oc1ccc(-c2ccccc2)cc1)n1cnnc1 (centres undefined)
The melting point of the first is higher: over 250 °C for the first, 67 to 68 °C for the second.

First: CC1(C)CC(S(=O)(=O)Cc2c(Cl)nn(C(F)F)c2C(F)(F)F)=NO1
Second: CCc1cccc(C)c1CNc1cc(C(=O)NC)nc2c1nc(C)n2C
The melting point of the first is lower: 136 to 137 °C for the first, 236 to 238 °C for the second.

`CCc1cc(C)cc(CC)c1C1C(=O)CC(CC(C)S(=O)CC)CC1=O` (centres undefined) gave a melting point of 58 to 61 °C.
